Measurements from paper PMC7985297 (Communications Biology, 2021).
Several values for one entry are separate records, joined by “and”; a condition that tells them apart may be missing. Equal entries are not always repeated. Entries after “also recorded” stand apart in the source; their conditions may differ.

Assays:
[1] = test system: LN95-D3 cells; experiment: Cell cycle analysis by flow cytometry, LN95-D3 subline; type: cell-based, human; details: LN95-D3, absence of androgen, 48 h
[2] = test system: Pin1 and cell cycle proteins in LN95 cells; experiment: Western blot of Pin1 and cell cycle proteins in LN95 cells; details: for CyclinA2 protein level (Fig. 6a) / CyclinB1 protein level (Fig. 6a) / CyclinD1 protein level (Fig. 6a) / Pin1 protein level (Fig. 6a) / p21 protein level (Fig. 6a) / p27 protein level (Fig. 6a): relative to 0 μM = 1, replicate experiments by date
Protocol: Data shown are the means ± s.e.m. from 3–4 independent experiments. Statistical significance was determined by ANOVA using the Dunnett’s multiple comparisons test. *P < 0.05, **P < 0.01, ***P < 0.001.
For western blot analyses, membranes were blocked with 5% non-fat milk in phosphate-buffered saline containing 0.1% Tween-20 (PBS-T) and then incubated overnight at 4 °C with primary antibody (1:200–5000) in PBS-T containing 5% non-fat milk or 2% BSA. After incubation with the primary antibody, the membrane was washed three times with TBS-T, incubated with a horseradish peroxidase-conjugated antibody secondary antibody (1:5000–10,000) for 1–2 h at room temperature, and washed three times with PBS-T and two more times with PBS before chemiluminescence was detected with ECL Prime Reagent (GE Healthcare Life Science, Mississauga, ON). Western blot images were captured using the ChemiDoc MP Imaging System (Bio-Rad Laboratories, Hercules, CA) and quantified using ImageJ software.

[3] = test system: DU145 cells; experiment: BrdU incorporation assay, DU145; type: cell-based, human; details: ATRA 10 µM
Protocol: Cells were treated with the inhibitors and stimulated with 1 nM of R1881 (+) or vehicle (−) for 24 to 72 h. Each data point represents the average from an independent experiment where the error bars show the mean ± s.e.m.
BrdU incorporation was determined with the colorimetric BrdU ELISA kit (Roche Diagnostics), according to the manufacturer’s protocol. In brief, cells were seeded in 96-well plates (LNCaP, 5000/well; LN95, 8000/well; PC-3 and DU145, 4000/wells) in media with reduced serum (0.5–1%). On the following day, cells were pre-treated with test compounds for 1 h and then incubated with 0.1 nM of R1881. After the indicated incubation times, cells were labeled with 10 μM of BrdU for 2 h and then fixed for the assay.

[4] = biological target: T1, full-length AR (Homo sapiens, UniProt P10275, T878A); experiment: PSA(6.1 kb)-luciferase AR-driven reporter assay in LNCaP cells; type: cell-based; details: LNCaP, R1881 1 nM, 24 h; read-out: IC50, androgen-induced PSA(6.1 kb)-luciferase activity
T1 construct: Transcriptional activity of full-length AR was assessed in LNCaP cells; endogenous in cells; host or cells: LNCaP
T1 sequence (P10275 1-920 T878A): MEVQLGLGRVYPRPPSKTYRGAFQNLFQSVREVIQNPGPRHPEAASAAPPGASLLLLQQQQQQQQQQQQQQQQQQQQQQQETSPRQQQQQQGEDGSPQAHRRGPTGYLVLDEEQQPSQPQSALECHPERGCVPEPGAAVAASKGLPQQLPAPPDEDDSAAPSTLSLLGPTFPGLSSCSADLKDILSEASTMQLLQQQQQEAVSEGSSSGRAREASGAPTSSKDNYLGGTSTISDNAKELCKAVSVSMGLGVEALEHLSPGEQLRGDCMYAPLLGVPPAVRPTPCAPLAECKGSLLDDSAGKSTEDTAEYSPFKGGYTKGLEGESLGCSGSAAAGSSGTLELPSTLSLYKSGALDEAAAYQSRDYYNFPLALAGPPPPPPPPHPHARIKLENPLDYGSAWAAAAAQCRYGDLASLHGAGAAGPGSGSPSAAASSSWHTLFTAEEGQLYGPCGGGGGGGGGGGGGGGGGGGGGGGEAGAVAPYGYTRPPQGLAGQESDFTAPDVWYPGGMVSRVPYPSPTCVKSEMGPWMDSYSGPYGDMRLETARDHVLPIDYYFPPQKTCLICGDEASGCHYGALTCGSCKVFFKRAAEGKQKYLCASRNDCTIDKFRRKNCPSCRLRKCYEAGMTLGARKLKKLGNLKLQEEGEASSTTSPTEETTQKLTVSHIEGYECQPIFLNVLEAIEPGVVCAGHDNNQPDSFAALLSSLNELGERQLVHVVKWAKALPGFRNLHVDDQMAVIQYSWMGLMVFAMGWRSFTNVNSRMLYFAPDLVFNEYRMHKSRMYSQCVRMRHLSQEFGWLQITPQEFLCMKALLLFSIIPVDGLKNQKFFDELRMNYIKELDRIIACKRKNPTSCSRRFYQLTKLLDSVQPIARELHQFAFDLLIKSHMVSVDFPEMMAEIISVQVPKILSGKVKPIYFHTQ

[5] = test system: phosphorylated MAPK (p44 and p42) and STAT3 (Tyr705 and Ser727); experiment: Western blot of phosphorylated MAPK and STAT3 after IL-6 in LNCaP cells; type: cell-based, human; details: juglone 20 µM, IL-6 50 ng/mL 15 min
Protocol: Fig. 3 Pin1 interacts with the AR NTD and regulates transactivation. a, b Transactivation assays performed in LNCaP cells expressing a vector encoding the human AR NTD fused to a Gal4 DNA-binding domain (Gal4-ARN). […] Input samples show Pin1 expression from lysates before the pull-down. i Co-immunoprecipitation assay showing AR protein co-immunoprecipitated with STAT3 from LNCaP cells incubated with EPI-002 (EPI, 35 μM), juglone (JUG, 30 μM), or vehicle (VEH, DMSO), and IL-6 (50 ng/mL) for 6 h. j, k Levels of phosphorylated MAPK (isoforms p44 and p42) and phosphorylated STAT3 (Tyr705 and Ser727) from LNCaP cells pre-treated with juglone (20 µM) and then stimulated with IL-6 (50 ng/mL) for 15 min. Error bars show the mean ± s.e.m. *P < 0.05, **P < 0.01, ***P < 0.001; ns not significant.

CC1=C(/C=C/C(C)=C/C=C/C(C)=C/C(=O)O)C(C)(C)CCC1 [ATRA, all-trans retinoic acid]
effect on cell cycle distribution [1]: reduced the S phase and increased the G1 population | CyclinA2 protein level (Fig. 6a) ([2]; 1 μM): 1 and 0.69 and 0.64 | CyclinB1 protein level (Fig. 6a) ([2]; 1 μM): 1.17 and 0.87 and 1.22 | CyclinD1 protein level (Fig. 6a) ([2]; 1 μM): 0.71 and 0.24 and 0.7 and 0.33 | Pin1 protein level (Fig. 6a) ([2]; 1 μM): 0.8 and 0.7 and 0.86 and 0.56 | p21 protein level (Fig. 6a) ([2]; 1 μM): 1.19 and 0.73 and 1.3 | p27 protein level (Fig. 6a) ([2]; 1 μM): 0.93 and 0.87 and 1.2 | CyclinA2 protein level (Fig. 6a) ([2]; 5 μM): 0.66 and 0.01 and 1.22 | CyclinB1 protein level (Fig. 6a) ([2]; 5 μM): 0.9 and 0.62 and 1.39 | CyclinD1 protein level (Fig. 6a) ([2]; 5 μM): 0.34 and 0.13 and 0.42 and 0.23 | Pin1 protein level (Fig. 6a) ([2]; 5 μM): 0.63 and 0.26 and 0.56 and 0.35 | p21 protein level (Fig. 6a) ([2]; 5 μM): 0.81 and 0.2 and 1.37 | p27 protein level (Fig. 6a) ([2]; 5 μM): 1.19 and 1.12 and 1.3 | CyclinA2 protein level (Fig. 6a) ([2]; 10 μM): 0.13 and 0 and 0.23 | CyclinB1 protein level (Fig. 6a) ([2]; 10 μM): 0.63 and 0.58 and 0.55 | CyclinD1 protein level (Fig. 6a) ([2]; 10 μM): 0.01 and 0.35 and 0.23 and 0.05 | Pin1 protein level (Fig. 6a) ([2]; 10 μM): 0.56 and 0.13 and 0.39 and 0.14 | p21 protein level (Fig. 6a) ([2]; 10 μM): 1.42 and 0.19 and 0.58 | p27 protein level (Fig. 6a) ([2]; 10 μM): 1.39 and 2.2 and 1.28 | effect on cellular Pin1 protein levels ([2]; LN95, 0–10 µM): dose-dependent decrease in Pin1 levels | effect on expression of cyclins D1, A2, B1 ([2]; LN95, ATRA 0–10 µM): significantly decreased the expression of cyclin D1 and cyclin A2; also recorded: not cyclin B1 | effect on levels of CDK inhibitors p27Kip1 and p21Cip1 ([2]; LN95, ATRA 0–10 µM): selectively increased the levels of cyclin-dependent kinase (CDK) inhibitor p27^Kip1 but not p21^Cip1 | effect on proliferation of DU145 cells [3]: did not impact the proliferation of either PC-3 or DU145 cells | BrdU incorporation, DU145 (Fig. 4d) ([3]; − R1881, ENZ 10 µM, EPI-002 25 µM, JUG 20 µM): 0.607 and 0.932 and 1.111 and 0.945

O=C1C=CC(=O)c2c(O)cccc21 [juglone]
IC50 [4]: 10.9 µM | effect on IL-6-induced phosphorylation of MAPK and STAT3 [5]: did not prevent phosphorylation of MAPK (isoforms p44 and p42) or STAT3 (Tyr705 and Ser727)
